Results taken from patent publication US9764002B2, “Dosage regimen for therapeutic method” (MADELEINE PHARMACEUTICALS PTY LTD, priority 2013, dated 2017).
Peptide text beside a SMILES is read from it.

Tests used:
clinical = conditions: human, in vivo
Experimental: A cohort of 10 subjects with stable CHF and undergoing standard of care treatment was treated with the formulation as follows: • i) 2 sentinel subjects were treated with a one stage 6 hour sc infusion of VSDL at 900 μg/h (Subjects 1 and 3) • ii) 5 subjects were treated with a one stage 12 hour sc infusion of VSDL at 900 μg/h (Subjects 102, 103, 104, 105 and 106); and • iii) 3 subjects were treated with a bimodal sc infusion of VSDL at 900 μg/h for 5 hours and then 550 μg/h for 7 hours (Subjects 111, 112 and 114). The dose regimen for this trial was designed using a pharmacokinetic model for VSDL based on prior data. The final model was used to simulate the median and 90% prediction intervals for 1000 patients given VSDL at 900 μg/h for 5 h then 550 μg/h for 7 h. This dose regimen targeted a population value of 10 ng/ml for the period 6-12 h after the start of the infusion. The predictions of the model were compared to observed VSDL concentration data from the three subjects referred to at iii) above. A model where infusion rate (ml/h) and delivered volume (ml) affected KA was an acceptable empirical description of the data. This model reproduced the observed increase in VSDL concentrations at the end of a subcutaneous infusion. The net effect was generally that KA increased with time during subcutaneous infusions. […] The final model had acceptable predictive performance based on the Visual Predictive Checks (allowing for low number of subjects).

[1] = human, in vivo
Experimental: In our clinical studies, lead patients were dosed at 900 μg/h for 6 hours based on the standard calculation shown earlier to reach a target steady state blood plasma concentration of 10 ng/ml and plasma levels of VSDL measured. Six hours is more than five half-lives for VSDL and, as such, should result in a steady state blood plasma concentration. Having verified the target steady state blood plasma concentration from lead patients, then Cohort 1 “Part 1” received 900 μg/h for 12 hours so as to achieve target steady state blood plasma concentration. However, the target steady state blood plasma concentration was not observed and as such the dosing regime required modification. After significant postulation and modelling of the hypothetical behaviour of VSDL, the multimodal dosage regime was developed. Cohort 1 “Part 2” was introduced using the bimodal dosing regime in an effort to reach a steady state blood plasma concentration of 10 ng/ml. Cohort 1 “Part 2” patients received VSDL at 900 μg/h (ie initial dosage rate) for 5 hours (ie initial period), followed by 550 μg/h for 7 hours (ie maintenance dosage rate).

[2] = human, in vivo; remark: listed apart in the source

- KA Absorption rate constant, Pop value (clinical): 0.265 h⁻¹
- KARATE Effect of infusion rate of KA, Pop value (clinical): −0.135
- KAVOL Effect of infusion volume on KA, Pop value (clinical): 0.222
- LGT1 Logit F value, Pop value (clinical): −1.05
- V Central volume, Pop value (clinical): 8.93 L
- influence of creatinine clearance (CCL) and body mass index (BMI) on VSDL elimination kinetics (clinical): minor
- clearance (clinical; CL Clearance, Pop value): 263 mL/min
- clearance (clinical; CL Maximum Elimination rate, Pop value): 447 mL/min
- V2 Multiplier of V for sc bolus, Pop value (clinical; sc): 1.596
- V3 Multiplier of V for sc infusion, Pop value (clinical; sc): 3.142
- bioavailability (clinical; sc, F Bioavailability, Pop value): 25.9%
- plasma concentration reached on continued increase beyond Css [1]: 30 ng/mL
- Css reached when the dose was doubled ([1]; sc): 20 ng/mL
- steady state blood plasma concentration of VSDL (Css) achieved ([1]; sc): 10 ng/mL
SMILES: CC(C)C[C@H](NC(=O)[C@H](C)NC(=O)[C@H](C)NC(=O)CNC(=O)[C@H](C)NC(=O)[C@H](CCC(=O)O)NC(=O)[C@H](CCC(=O)O)NC(=O)[C@H](CC(N)=O)NC(=O)[C@@H]1CCCN1C(=O)[C@H](CCC(=O)O)NC(=O)[C@H](CO)NC(=O)[C@H](CC(C)C)NC(=O)[C@@H](NC(=O)[C@H](CCC(N)=O)NC(=O)[C@@H]1CCCN1C(=O)[C@@H]1CCCN1C(=O)[C@@H](NC(=O)[C@@H](NC(=O)[C@@H](N)CCC(=O)O)C(C)C)C(C)C)C(C)C)C(=O)N[C@@H](CO)C(=O)N1CCC[C@H]1C(=O)N[C@@H](CC(C)C)C(=O)N1CCC[C@H]1C(=O)N[C@@H](CCC(=O)O)C(=O)N[C@H](C(=O)N1CCC[C@H]1C(=O)N1CCC[C@H]1C(=O)N[C@@H](Cc1c[nH]c2ccccc12)C(=O)N[C@H](C(=O)NCC(=O)N[C@@H](CCC(=O)O)C(=O)N[C@H](C(=O)N[C@@H](CO)C(=O)N1CCC[C@H]1C(=O)N[C@@H](C)C(=O)N[C@@H](CCC(N)=O)C(=O)N[C@@H](CCCNC(=N)N)C(=O)O)C(C)C)[C@@H](C)O)C(C)C [VSDL] (H-EVVPPQVLSEPNEEAGAALSPLPEVPPWTGEVSPAQR-OH; N-terminus and C-terminus assumed)
- symptomatic hypotension from blood pressure drops [2]: none of these resulted in symptomatic hypotension
